Results published in US9233965B2, “3,4-dihydropyrrolo[1,2-A]pyrazine-2,8(1H)-dicarboxamide derivatives, preparation thereof and therapeutic use thereof for diseases involving casein kinase 1 epsilon and/or casein kinase 1 delta” (SANOFI, priority 2010, dated 2016).

How the values were obtained:
[1] = biological target: casein kinase 1 epsilon (CK1 epsilon) (Homo sapiens (Human), UniProt P49674); experiment: Test A: inhibitory activity on CK1 epsilon, casein phosphorylation assay on ATP-33P filter plate; assay type: biochemical; details: IC50 values or IC50 ranges (result of several experiments), ATP 10 μM final
Sequence of casein kinase 1 epsilon (CK1 epsilon) (P49674 whole entry): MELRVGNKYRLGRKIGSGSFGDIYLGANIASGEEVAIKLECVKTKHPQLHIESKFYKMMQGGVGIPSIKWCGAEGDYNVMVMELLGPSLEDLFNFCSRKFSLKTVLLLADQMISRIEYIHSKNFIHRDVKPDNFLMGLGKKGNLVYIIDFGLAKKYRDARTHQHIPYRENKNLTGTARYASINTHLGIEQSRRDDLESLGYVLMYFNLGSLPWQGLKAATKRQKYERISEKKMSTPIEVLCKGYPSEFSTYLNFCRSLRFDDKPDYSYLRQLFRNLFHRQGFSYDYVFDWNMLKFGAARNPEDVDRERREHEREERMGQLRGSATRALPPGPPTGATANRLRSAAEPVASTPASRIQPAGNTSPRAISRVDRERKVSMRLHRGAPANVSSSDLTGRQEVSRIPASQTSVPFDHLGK
In short: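 Human CK1 epsilon (3 ng/μL final) phosphorylates dephosphorylated casein (0.2 μg/μL) with ATP-33P plus 10 μM cold ATP (KM for ATP 21 μM), 2 h at room temperature, pH 7.5 Tris buffer. TCA-precipitated protein counted by scintillation; compounds at 10 to 0.001 μM give IC50 values or % inhibition at 10 μM.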

| IC50 [1] [nM] | melting point [°C] | SMILES |
| --- | --- | --- |
| 4 | 249 to 253 | CC1(CNC(=O)N2CCn3c(Cl)c(-c4cccc(F)c4)c(C(N)=O)c3C2)COC1 [Compound 91, 6-chloro-7-(3-fluorophenyl)-N^2-(3-methyl-oxetan-3-ylmethyl)-3,4-dihydropyrrolo[1,2-a]pyrazine-2,8(1H)-dicarboxamide] |
| 1 to 8 | 196 to 197 | Cc1cccc(-c2c(C(N)=O)c3n(c2Cl)CCN(C(=O)NC(C)(C)C)C3)c1 [Compound 61, N^2-tert-butyl-6-chloro-7-(3-methylphenyl)-3,4-dihydropyrrolo[1,2-a]pyrazine-2,8(1H)-dicarboxamide] |
| 2 to 4 | 251 to 253 | NC(=O)c1c(-c2cccc(F)c2)c(Cl)n2c1CN(C(=O)N[C@H]1CC[C@H](O)CC1)CC2 [Compound 83, trans-6-chloro-7-(3-fluorophenyl)-N^2-(4-hydroxy-cyclo-hexyl)-3,4-dihydropyrrolo[1,2-a]pyrazine-2,8(1H)-dicarboxamide] |
| 6 to 7 | 184 to 186 | NC(=O)c1c(-c2cccc(F)c2)c(Cl)n2c1CN(C(=O)NC1COC1)CC2 [Compound 90, 6-chloro-7-(3-fluorophenyl)-N^2-(oxetan-3-yl)-3,4-dihydropyrrolo[1,2-a]pyrazine-2,8(1H)-dicarboxamide] |
| < 1 | 202 to 204 | CC(C)(NC(=O)N1CCn2c(C#N)c(-c3cccc(F)c3)c(C(N)=O)c2C1)C(F)(F)F [Compound 107, 6-cyano-7-(3-fluorophenyl)-N^2-(1,1,1-trifluoro-2-methylpropan-2-yl)-3,4-dihydropyrrolo[1,2-a]pyrazine-2,8(1H)-dicarboxamide] |
| 4 to 5 | 204 to 206 | NC(=O)c1c(-c2cccc(F)c2)c(Cl)n2c1CN(C(=O)NCC1(CO)CC1)CC2 [Compound 75, 6-chloro-7-(3-fluorophenyl)-N^2-{[1-(hydroxymethyl)cyclo-propyl]methyl}-3,4-dihydropyrrolo[1,2-a]pyrazine-2,8(1H)-dicarboxamide] |
| 1 to 11 | 205 to 207 | CC(C)(CO)CNC(=O)N1CCn2c(Cl)c(-c3cccc(F)c3)c(C(N)=O)c2C1 [Compound 73, 6-chloro-7-(3-fluorophenyl)-N^2-(3-hydroxy-2,2-dimethylpropyl)-3,4-dihydropyrrolo[1,2-a]pyrazine-2,8(1H)-dicarboxamide] |
| 10 to 27 | 210 to 213 | NC(=O)c1c(-c2ccccc2)c(Cl)n2c1CN(C(=O)NCC(F)(F)F)CC2 [Compound 76, 6-chloro-7-phenyl-N^2-(2,2,2-trifluoroethyl)-3,4-dihydropyrrolo[1,2-a]pyrazine-2,8(1H)-dicarboxamide] |
| 5 to 28 | 213 to 215 | CC(C)(C)NC(=O)N1CCn2c(F)c(-c3ccccc3)c(C(N)=O)c2C1 [Compound 58, N^2-tert-butyl-6-fluoro-7-phenyl-3,4-dihydropyrrolo[1,2-a]pyrazine-2,8(1H)-dicarboxamide] |
| 1 to 2 | 192 to 195 | CC(C)(C)NC(=O)N1CCn2c(Cl)c(-c3cccc(C#N)c3)c(C(N)=O)c2C1 [Compound 65, N^2-tert-butyl-6-chloro-7-(3-cyanophenyl)-3,4-dihydropyrrolo[1,2-a]pyrazine-2,8(1H)-dicarboxamide] |
| 3 | 190 to 193 | C[C@H](NC(=O)N1CCn2c(Cl)c(-c3cccc(F)c3)c(C(N)=O)c2C1)C(F)(F)F [Compound 78, 6-chloro-7-(3-fluorophenyl)-N^2-[(2S)-1,1,1-trifluoropropan-2-yl]-3,4-dihydropyrrolo[1,2-a]pyrazine-2,8(1H)-dicarboxamide] |
| 11 to 13 | 181 to 185 | NC(=O)c1c(-c2ccccc2)c(Cl)n2c1CN(C(=O)NC1CCOC1)CC2 (centres unmarked) [Compound 92, 6-chloro-7-phenyl-N^2-(tetrahydrofuran-3-yl)-3,4-dihydropyrrolo[1,2-a]pyrazine-2,8(1H)-dicarboxamide] |
| 40 | 175 to 177 | COc1ccc(-c2c(C(N)=O)c3n(c2C2CC2)CCN(C(=O)NC2(C4CC4)CC2)C3)cc1 [Compound 51, N^2-[1,1′-bi(cyclo-propyl)-1-yl]-6-cyclo-propyl-7-(4-methoxyphenyl)-3,4-dihydropyrrolo[1,2-a]pyrazine-2,8(1H)-dicarboxamide] |
| 1 | > 217 | CC(C)(C)NC(=O)N1CCn2c(C#N)c(-c3cccc(F)c3)c(C(N)=O)c2C1 [Compound 105, 6-cyano-7-(3-fluorophenyl)-N^2-(tert-butyl)-3,4-dihydropyrrolo[1,2-a]pyrazine-2,8(1H)-dicarboxamide] |
| < 1 | 197 to 198 | COc1ccc(-c2cn3c(c2C(N)=O)CN(C(=O)NC(C)(C)C)CC3)cc1 [Compound 2, N^2-tert-butyl-7-(4-methoxyphenyl)-3,4-dihydropyrrolo[1,2-a]pyrazine-2,8(1H)-dicarboxamide] |
| 4 to 36 | 157 to 159 | CC(C)(C)NC(=O)N1CCn2c(c(C(N)=O)c(-c3ccc(Oc4ccccc4)cc3)c2C2CC2)C1 [Compound 39, N^2-tert-butyl-6-cyclo-propyl-7-(4-phenoxyphenyl)-3,4-dihydropyrrolo[1,2-a]pyrazine-2,8(1H)-dicarboxamide] |
| 5 | 154 to 155 | CC(C)CCNC(=O)N1CCn2c(Cl)c(-c3ccccc3)c(C(N)=O)c2C1 [Compound 69, 6-chloro-N^2-(3-methylbutyl)-7-phenyl-3,4-dihydropyrrolo[1,2-a]pyrazine-2,8(1H)-dicarboxamide] |
| 2 | 176 to 178 | C[C@H](NC(=O)N1CCn2c(C#N)c(-c3cccc(F)c3)c(C(N)=O)c2C1)C(F)(F)F [Compound 106, 6-cyano-7-(3-fluorophenyl)-N^2-((2S)-1,1,1-trifluoropropan-2-yl)-3,4-dihydropyrrolo[1,2-a]pyrazine-2,8(1H)-dicarboxamide] |
| 2 to 16 | 119 to 124 | NC(=O)c1c(-c2cccc(F)c2)c(Cl)n2c1CN(C(=O)NCCC(F)(F)F)CC2 [Compound 80, 6-chloro-7-(3-fluorophenyl)-N^2-(3,3,3-trifluoropropyl)-3,4-dihydropyrrolo[1,2-a]pyrazine-2,8(1H)-dicarboxamide] |
| 45 to 146 | 220 to 223 | CC(C)(C)NC(=O)N1CCn2c(c(C(N)=O)c(-c3ccc(F)cc3)c2C2CC2)C1 [Compound 47, N^2-tert-butyl-6-cyclo-propyl-7-(4-fluorophenyl)-3,4-dihydropyrrolo[1,2-a]pyrazine-2,8(1H)-dicarboxamide] |
| 1 to 5 | 196 to 198 | CC(C)(C)NC(=O)N1CCn2c(Cl)c(-c3cccc(F)c3)c(C(N)=O)c2C1 [Compound 67, N^2-tert-butyl-6-chloro-7-(3-fluorophenyl)-3,4-dihydropyrrolo[1,2-a]pyrazine-2,8(1H)-dicarboxamide] |
| 1 to 4 | 183 to 187 | CC(C)(NC(=O)N1CCn2c(Cl)c(-c3cccc(F)c3)c(C(N)=O)c2C1)C(F)(F)F [Compound 79, 6-chloro-7-(3-fluorophenyl)-N^2-(1,1,1-trifluoro-2-methylpropan-2-yl)-3,4-dihydropyrrolo[1,2-a]pyrazine-2,8(1H)-dicarboxamide] |
| 6 | 185 to 187 | CC(C)(CO)CNC(=O)N1CCn2c(Cl)c(-c3cccc(C(F)(F)F)c3)c(C(N)=O)c2C1 [Compound 74, 6-chloro-N^2-(3-hydroxy-2,2-dimethylpropyl)-7-(3-trifluoromethyl-phenyl)-3,4-dihydropyrrolo[1,2-a]pyrazine-2,8(1H)-dicarboxamide] |
| 2 to 16 | 223 to 225 | NC(=O)c1c(-c2cccc(F)c2)c(Cl)n2c1CN(C(=O)NC1CCOCC1)CC2 [Compound 98, 6-chloro-7-(3-fluorophenyl)-N^2-(tetrahydro-2H-pyran-4-yl)-3,4-dihydropyrrolo[1,2-a]pyrazine-2,8(1H)-dicarboxamide] |
| 38 | 203 to 206 | CC(C)(C)NC(=O)N1CCn2c(c(C(N)=O)c(-c3ccc(OCc4ccccc4)cc3)c2C2CC2)C1 [Compound 40, 7-[4-(benzyloxy)phenyl]-N^2-tert-butyl-6-cyclo-propyl-3,4-dihydropyrrolo[1,2-a]pyrazine-2,8(1H)-dicarboxamide] |
| 2 to 8 | 208 to 213 | NC(=O)c1c(-c2cccc(F)c2)c(Cl)n2c1CN(C(=O)NCC(F)(F)F)CC2 [Compound 77, 6-chloro-7-(3-fluorophenyl)-N^2-(2,2,2-trifluoroethyl)-3,4-dihydropyrrolo[1,2-a]pyrazine-2,8(1H)-dicarboxamide] |
| 6 | 236 to 238 | N#Cc1cccc(-c2c(C(N)=O)c3n(c2Cl)CCN(C(=O)NC2CCOCC2)C3)c1 [Compound 95, 6-chloro-7-(3-cyanophenyl)-N^2-(tetrahydro-2H-pyran-4-yl)-3,4-dihydropyrrolo[1,2-a]pyrazine-2,8(1H)-dicarboxamide] |
| 9 | 232 to 234 | N#Cc1c(-c2cccc(F)c2)c(C(N)=O)c2n1CCN(C(=O)NC1CCOCC1)C2 [Compound 109, 6-cyano-7-(3-fluorophenyl)-N^2-(tetrahydro-2H-pyran-4-yl)-3,4-dihydropyrrolo[1,2-a]pyrazine-2,8(1H)-dicarboxamide] |
